Molecules are shown by their SMILES.

For the assay, the target named is T1, intestinal α-glucosidase.
T1 construct: called intestinal; pNPG assay after Kim et al; 5KZW (docking only) is not the assayed enzyme
Put plainly: p-nitrophenol release from pNPG, absorbance […] nm. Type of assay: biochemical. Particulars: p-nitrophenyl α-D-glucopyranoside (250 μL of 20 mM), sodium phosphate pH 6.9, 37°C, 10 min preincubation.

On to `O=C(O)/C=C/c1ccc(O)c(O)c1` [caffeic acid], for which inhibition was half-maximal at 1050 ± 250 µM (IC50).

Source of the values: PMC8279857, “In Vitro and In Silico Evaluation for the Inhibitory Action of O. basilicum Methanol Extract on α-Glucosidase and α-Amylase” (Evidence-based Complementary and Alternative Medicine : eCAM, 2021).
